Biological target: wild-type PA-Nter (Influenza A virus, UniProt C3W5S0, DEL51-57/DEL61-72/E59G)
Assay type: biochemical, influenza A/California/07/2009 (H1N1)

Structure (SMILES): O=c1cc(-c2ccc(O)c(O)c2)oc2c([C@@H]3O[C@H](CO)[C@@H](O)[C@H](O)[C@H]3O)c(O)cc(O)c12 [orientin]
- inhibition of endonuclease activity, gel-based assay (qualitative): higher inhibitory potency than luteolin

From paper PMC8305651 (International Journal of Molecular Sciences, 2021)
